According to PMC7477874, “Targeting L-Proline Uptake as New Strategy for Anti-chagas Drug Development” (Frontiers in Chemistry, 2020):
Several values for one entry are separate records, joined by “and”; a condition that tells them apart may be missing. Equal entries are not always repeated. Entries after “also recorded” stand apart in the source; their conditions may differ. Where two headings read alike, the source gives them in different places. Each block holds one compound with its values, some of them ahead of it.

Columns and labels:
[1] = tested on: T. cruzi epimastigotes (CL strain clone 14); conditions: cited from earlier work
[2] = tested on: T. cruzi epimastigotes (CL strain clone 14); assay: Growth inhibition assay on T. cruzi epimastigotes; type: cell-based, Trypanosoma cruzi; conditions: for Effect on parasite growth at the maximum concentration: 100 μM; for Times more active than T4C: T. cruzi epimastigotes, IC50 relative to T4C (890 μM)
Experimental: T. cruzi CL strain clone 14 epimastigotes (Brener and […], [1965]) were maintained in the exponential growth phase by subculturing every 48 h in Liver Infusion Tryptose (LIT) medium supplemented with 10% FCS (Vitrocell, Campinas, São Paulo, Brazil) at 28 °C. T. cruzi epimastigotes in the exponential growth phase (5.0-6.0 x 10^7 cells mL^-1) were cultured in fresh LIT medium. The cells were treated with different concentrations of drugs or not treated (negative control). A combination of Rotenone (60 μM) and Antimycin (0.5 μM) was used as a positive control for inhibition as previously described. (Magdaleno et al., [2009]) The cells (2.5 x 10^6 mL^-1) were transferred to 96-well culture plates and incubated at 28 °C. Cell proliferation was quantified by reading the optical density (OD) at 620 nm for 8 days. The OD was converted to cell density values (cells per mL) using a linear regression equation previously obtained under the same conditions. The concentration of compounds that inhibited 50% of parasite proliferation (IC50) was determined during the exponential growth phase (4 days) by fitting the data to a typical sigmoidal dose-response curve using OriginPro8. The compounds were evaluated in quadruplicate in each experiment. The results shown here correspond to three independent experiments. As a cell growth inhibition control, growth curves in which […] were added to the culture medium were run in parallel for all experiments.

[3] = tested on: Vero cells; assay: Cytotoxicity assay on Vero cells (MTT); type: cell-based, African green monkey; conditions: for IC50: Chlorocebus sabaeus, Vero, 48 h, MTT
Experimental: To evaluate the analogs toxicity, Vero cells previously plated on 96 multi-well plate in DMEM 2% FBS and incubated for 48 h at 37 °C in a humid atmosphere containing 5% CO2, were incubated with […] of DMEM 2% FBS supplemented with each analog for 48 h. The concentration (μM) was different with each analog:
The viability of cells was measured by MTT dye (3-(4,5-Dimethylthiazol-2-yl)-2,5-diphenyltratazolium bromide, Sigma-Aldrich) colorimetric method. Benznidazole and DMSO were used as positive and negative controls, respectively. Data are expressed as means ± SD of the results of three independent assays of each condition.

[4] = tested on: L-proline transporter; assay: L-Proline transport competition assay in T. cruzi epimastigotes; type: cell-based, Trypanosoma cruzi; conditions: 3.1 mM analog; for Proline uptake inhibition (in words): 0.31 mM L-proline; for % of Proline inh.: 0.31 mM L-proline (Km), 30 s
Experimental: Parasites in exponential growth phase were washed three times by centrifugation and resuspended in phosphate buffered saline (PBS), pH 7.4. Cells were counted in a Neubauer chamber, adjusted with the same buffer to a final density of 200 × 10^6 cells/mL and distributed in aliquots of 100 μL (containing 20 × 10^6 cells each). Transport assays were initiated by the addition to the assay tubes of 100 μL of the desired dilution of L-proline in PBS in the presence of […] of L-[3H] proline. Unless otherwise specified, V0 was measured at 28 °C for 30 s by incorporation of 0.75 and 3 mM L-proline traced with 1 μCi of U-^14C-L-Pro (Perkin Elmer). In all cases, proline transport was stopped by addition of […] of cold 50 mM proline in PBS (pH 7.4), and rapid washing by centrifugation at 10,000x g for 2 min. Background values in each experiment were measured by simultaneous addition of radiolabeled L-proline and stop solution as previously described (Silber et al., [2002]). For the competition assays, the transport experiments were performed as described above using the L-Pro concentration corresponding to the Km (0.31 mM). Those conditions were chosen considering an inhibitory activity by structurally related compounds should be competitive, and so, should be evidenced by a change in the […] at L-Pro concentrations close to the Km. Non-competitive inhibitors, if any, should diminish Vmax, which is measured at 10 x Km L-Pro (3.1 mM) (Silber et al., [2002]). […] The analogs were assayed on T. cruzi epimastigotes incubated with proline at the transporter Km concentration (0.31 mM), and the analogs were assayed at concentration 10-fold higher (3.1 mM). […] The oleyl derivate (3k), with an unsaturated fatty tail, has a similar IC50 on T. cruzi epimastigotes compared to the cetyl analog (3j) showing no inhibition in terms of proline uptake (Table 2).  Figure 4 Proline uptake assay. Pro control = Proline control, Pro comp = L-Proline as competitor. 3i-k and 3n = proline level incubated (*p < 0.05) with selected analogs. Pro control (0.31 mM L-proline, [^3H] proline, PBS). Pro Comp (3.1 mM L-proline, [^3H] proline, PBS). Compounds 3i-k and 3n (0.31 mM L-proline, 3.1 mM analog 3x, [^3H] proline, PBS). Stop solution: 50 mM L-proline added after 30 s.

[5] = Solubility observed in the Vero cytotoxicity assay; type: physicochemical; conditions: at 50 μM, Vero cytotoxicity assay medium
Experimental: Vero cells are well established model to test cytotoxicity in vitro because it is an aneuploid and a continuous cell linage. […] Compound 3j was not soluble at 50 μM which made not possible to calculate its IC50.

[6] = Trypanosoma cruzi, 96 h, epimastigotes CL14, IC50 at 4 days, means (SD) from three independent experiments, max. concentration 100 μM, read-out: T. cruzi IC50
[7] = epimastigotes CL14, IC50 at 4 days, means (SD) from three independent experiments, max. concentration 100 μM, read-out: T. cruzi IC50
[8] = Trypanosoma cruzi, epimastigotes, unit given as mM, read-out: T. cruzi epimastigotes IC50 (as restated in the discussion)

- IC50 [2, 6]: < 0.04 mM
- IC50 [2, 7]: < 0.05 mM and 0.0351 mM
SMILES: CCCCCCCC/C=C\CCCCCCCCn1cc(CN2CCC[C@H]2C(=O)OC)nn1 [Compound 3k, Methyl (Z)-((1-(Octadec-9-en-1-yl)-1H-1,2,3-Triazol-4-yl)Methyl)-L-Prolinate]
- Times more active than T4C [2]: 22
- Selectivity index (IC50 Vero cells / IC50 T. cruzi epimastigotes) [3]: 0.43
- IC50 [3]: 17 µM
- % of Proline inh. [4]: 0%
- Proline uptake inhibition (in words) [4]: no inhibition

- IC50 [2, 6]: 0.1 mM
- melting point: 72.7 to 73.7 °C
SMILES: CCCCCCCCCCCCCCCCCCCCn1cc(CN2CCC[C@H]2C(=O)OC)nn1 [Compound 3l, Methyl ((1-Icosyl-1H-1,2,3-Triazol-4-yl)Methyl)-L-Prolinate]

- IC50 [2, 6]: > 0.1 mM
SMILES: COC(=O)[C@@H]1CCCN1Cc1cn(CC=C(C)CCC=C(C)C)nn1 [Compound 3m, Methyl ((1-(3,7-Dimethylocta-2,6-Dien-1-yl)-1H-1,2,3-Triazol-4-yl)Methyl)-L-Prolinate]
- Effect on parasite growth at the maximum concentration ([2]; epimastigotes): did not affect the parasite growth; also recorded: inactive

- IC50 [2, 6]: < 0.05 mM
- IC50 [2, 7]: 0.0483 ± 0.00129 mM
SMILES: COC(=O)[C@@H]1CCCN1Cc1cn(C/C=C(\C)CC/C=C(\C)CCC=C(C)C)nn1 [Compound 3n, Methyl ((1-((2E,6E)-3,7,11-Trimethyldodeca-2,6,10-Trien-1-yl)-1H-1,2,3-Triazol-4-yl)Methyl)-L-Prolinate]
- Times more active than T4C [2]: 18
- Selectivity index (IC50 Vero cells / IC50 T. cruzi epimastigotes) [3]: 0.25
- IC50 [3]: 14 µM
- Proline uptake inhibition (in words) [4]: complete inhibition; also recorded: markedly reduction of the internalized proline

- IC50 [2, 6]: 0.0586 ± 0.00137 mM
- IC50 [2, 8]: 0.0596 mM
SMILES: COC(=O)[C@@H]1CCCN1Cc1cn(C/C=C(\C)CC/C=C(/C)CCC=C(C)C)nn1 [Compound 3o, Methyl ((1-((2E,6Z)-3,7,11-Trimethyldodeca-2,6,10-Trien-1-yl)-1H-1,2,3-Triazol-4-yl)Methyl)-L-Prolinate]

- IC50 [2, 6]: 0.0483 mM
- IC50 [2, 7]: 0.0697 ± 0.00217 mM
SMILES: COC(=O)[C@@H]1CCCN1Cc1cn(C/C=C(\C)CCCC(C)CCCC(C)CCCC(C)C)nn1 (stereo partly drawn) [Compound 3p, Methyl ((1-((E)-3,7,11,15-Tetramethylhexadec-2-en-1-yl)-1H-1,2,3-Triazol-4-yl)Methyl) -L-Prolinate]

- IC50 [2, 6]: 0.0483 ± 0.00581 mM
SMILES: COC(=O)[C@@H]1CCCN1Cc1cn(CC=C(C)CCCC(C)CCCC(C)CCCC(C)C)nn1 (stereo partly drawn) [Compound 3q, Methyl ((1-(3,7,11,15-Tetramethylhexadec-2-en-1-yl)-1H-1,2,3-Triazol-4-yl)Methyl)-L-Prolinate]

Second part, the compound before the results:

SMILES: O=C(Cn1ccnc1[N+](=O)[O-])NCc1ccccc1 [Benznidazole]
- IC50 ([1]; epimastigotes, read-out: T. cruzi IC50): 7 µM

SMILES: CCOC(=O)Cn1cc(CN2CCC[C@H]2C(=O)OC)nn1 [Compound 3a, Methyl ((1-(2-Ethoxy-2-Oxoethyl)-1H-1,2,3-Triazol-4-yl)Methyl)-L-Prolinate]
- IC50 [2, 6]: > 0.1 mM
- Effect on parasite growth at the maximum concentration ([2]; epimastigotes): did not affect the parasite growth; also recorded: inactive

SMILES: CCOC(=O)CCCCn1cc(CN2CCC[C@H]2C(=O)OC)nn1 [Compound 3b, Methyl ((1-(5-Ethoxy-5-Oxopentyl)-1H-1,2,3-Triazol-4-yl)Methyl)-L-Prolinate]
- IC50 [2, 6]: > 0.1 mM
- Effect on parasite growth at the maximum concentration ([2]; epimastigotes): did not affect the parasite growth; also recorded: inactive

SMILES: COC(=O)[C@@H]1CCCN1Cc1cn(Cc2ccccc2)nn1 [Compound 3c, Methyl ((1-Benzyl-1H-1,2,3-Triazol-4-yl)Methyl)-L-Prolinate]
- IC50 [2, 6]: > 0.1 mM
- Effect on parasite growth at the maximum concentration ([2]; epimastigotes): did not affect the parasite growth; also recorded: inactive

SMILES: COC(=O)[C@@H]1CCCN1Cc1cn(C2CCCCC2)nn1 [Compound 3d, Methyl ((1-Cyclohexyl-1H-1,2,3-Triazol-4-yl)Methyl)-L-Prolinate]
- IC50 [2, 6]: > 0.1 mM
- Effect on parasite growth at the maximum concentration ([2]; epimastigotes): did not affect the parasite growth; also recorded: inactive

SMILES: COC(=O)[C@@H]1CCCN1Cc1cn(CCCc2ccccc2)nn1 [Compound 3e, Methyl ((1-(3-Phenylpropyl)-1H-1,2,3-Triazol-4-yl)Methyl)-L-Prolinate]
- IC50 [2, 6]: > 0.1 mM
- Effect on parasite growth at the maximum concentration ([2]; epimastigotes): did not affect the parasite growth; also recorded: inactive

SMILES: COC(=O)[C@@H]1CCCN1Cc1cn(CC=Cc2ccccc2)nn1 [Compound 3f, Methyl ((1-Cinnamyl-1H-1,2,3-Triazol-4-yl)Methyl)-L-Prolinate]
- IC50 [2, 6]: > 0.1 mM
- Effect on parasite growth at the maximum concentration ([2]; epimastigotes): did not affect the parasite growth; also recorded: inactive

SMILES: COC(=O)[C@@H]1CCCN1Cc1cn(Cc2ccc3ccccc3c2)nn1 [Compound 3g, Methyl ((1-(Naphthalen-2-Ylmethyl)-1H-1,2,3-Triazol-4-yl)Methyl)-L-Prolinate]
- IC50 [2, 6]: 0.1 mM
- melting point: 64 to 64.9 °C

SMILES: CCCCCCCCn1cc(CN2CCC[C@H]2C(=O)OC)nn1 [Compound 3h, Methyl ((1-Octyl-1H-1,2,3-Triazol-4-yl)Methyl)-L-Prolinate]
- IC50 [2, 6]: > 0.1 mM
- Effect on parasite growth at the maximum concentration ([2]; epimastigotes): did not affect the parasite growth; also recorded: inactive

SMILES: CCCCCCCCCCn1cc(CN2CCC[C@H]2C(=O)OC)nn1 [Compound 3i, Methyl ((1-Decyl-1H-1,2,3-Triazol-4-yl)Methyl)-L-Prolinate]
- Times more active than T4C [2]: 23
- IC50 [2, 6]: < 0.04 mM
- IC50 [2, 7]: < 0.05 mM and 0.038 mM and 0.039 mM
- Selectivity index (IC50 Vero cells / IC50 T. cruzi epimastigotes) [3]: 1.13
- IC50 [3]: 43 µM
- Proline uptake inhibition (in words) [4]: markedly reduction of the internalized proline

SMILES: CCCCCCCCCCCCCCCCn1cc(CN2CCC[C@H]2C(=O)OC)nn1 [Compound 3j, Methyl ((1-Hexadecyl-1H-1,2,3-Triazol-4-yl)Methyl)-L-Prolinate]
- Times more active than T4C [2]: 36
- IC50 [2, 8]: 0.0245 mM
- % of Proline inh. [4]: 20% and 18^# %
- Solubility [5]: not soluble
- melting point: 60 to 60.9 °C

SMILES: O=C(O)[C@@H]1CSCN1 [Compound T4C, L-thiazolidine-4-carboxylic acid]
- IC50 ([1]; ref Magdaleno et al., 2009, read-out: IC50 on T. cruzi epimastigotes): 890 µM
